Laboratory results published in US6525001B1, “Substituted pyrimidine and pyridine herbicides” (Mid-American Commercialization Corporation, priority 1997, dated 2003).

Columns and labels:
Assay in all cases: Test B pre-/postemergence
Format in all cases: in vivo
Parameters in all cases: key: 0 is no effect; 10 is complete control
rape (Brassica napus) = system: rape (Brassica napus)
Summary of the method: (§1)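 Compounds in a surfactant-containing, non-phytotoxic solvent blend are applied to freshly planted seed (preemergence) and, concurrently, to seedlings of 2 to 18 cm at 1–4 leaves (postemergence). Plants stay in the greenhouse twelve to sixteen days and are then scored visually from 0 (no effect) to 10 (complete control).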

[1] = system: momingglory (Ipomoea hederacea)
Summary of the method: as §1

corn (Zea mays) = system: corn (Zea mays)
Summary of the method: as §1

[2] = system: giant foxtail (Setaria faberii)
Summary of the method: as §1

[3] = system: sugar beet (Beta vulgaris)
Summary of the method: as §1

[4] = system: bedstraw (Galium aparine)
Summary of the method: as §1

[5] = system: velvetleaf (Abutilon theophrasti)
Summary of the method: as §1

[6] = system: purple nutsedge (Cyperus rotundus)
Summary of the method: as §1

[7] = system: pigweed (Amaranthus retroflexus)
Summary of the method: as §1

[8] = system: wheat (Triticum aestivum)
Summary of the method: as §1

wild oat (Avena fatua) = system: wild oat (Avena fatua)
Summary of the method: as §1

[9] = system: cocklebur (Xanthium strumarium)
Summary of the method: as §1

soybean (Glycine max) = system: soybean (Glycine max)
Summary of the method: as §1

[10] = system: crabgrass (Digitaria sanguinalis)
Summary of the method: as §1

[11] = Preemergence, Rate 62 g/ha, scale of 0 to 10

Cc1cnc(-n2cnc(C(F)(F)F)n2)nc1C(=O)c1cccc(C(F)(F)F)c1 [Compound 67]
Plant response rating, Rape (rape (Brassica napus); [11]): 7 | Rape plant response rating (rape (Brassica napus); Rate 62 g/ha, Postemergence): 6 | Rape plant response rating (rape (Brassica napus); Rate 125 g/ha, Postemergence): 8 | Plant response rating, Rape (rape (Brassica napus); Rate 125 g/ha, Preemergence): 9 | Plant response rating, Rape (rape (Brassica napus); Rate 250 g/ha, Postemergence): 8 | Plant response rating, Rape (rape (Brassica napus); Rate 250 g/ha, Preemergence): 10 | Plant response rating, Rape (rape (Brassica napus); Rate 500 g/ha, Postemergence): 9 | Plant response rating, Rape (rape (Brassica napus); Rate 500 g/ha, Preemergence): 10 | Plant response rating, Morningglory [1, 11]: 8 | Morningglory plant response rating ([1]; Rate 62 g/ha, Postemergence): 7 | Morningglory plant response rating ([1]; Rate 125 g/ha, Postemergence): 7 | Plant response rating, Morningglory ([1]; Rate 125 g/ha, Preemergence): 10 | Plant response rating, Morningglory ([1]; Rate 250 g/ha, Postemergence): 10 | Plant response rating, Morningglory ([1]; Rate 250 g/ha, Preemergence): 10 | Plant response rating, Morningglory ([1]; Rate 500 g/ha, Postemergence): 10 | Plant response rating, Morningglory ([1]; Rate 500 g/ha, Preemergence): 10 | Plant response rating, Corn (corn (Zea mays); [11]): 4 | Corn plant response rating (corn (Zea mays); Rate 62 g/ha, Postemergence): 4 | Corn plant response rating (corn (Zea mays); Rate 125 g/ha, Postemergence): 5 | Plant response rating, Corn (corn (Zea mays); Rate 125 g/ha, Preemergence): 4 | Plant response rating, Corn (corn (Zea mays); Rate 250 g/ha, Postemergence): 6 | Plant response rating, Corn (corn (Zea mays); Rate 250 g/ha, Preemergence): 4 | Plant response rating, Corn (corn (Zea mays); Rate 500 g/ha, Postemergence): 7 | Plant response rating, Corn (corn (Zea mays); Rate 500 g/ha, Preemergence): 7 | Plant response rating, Giant foxtail [2, 11]: 7 | Giant foxtail plant response rating ([2]; Rate 62 g/ha, Postemergence): 5 | Giant foxtail plant response rating ([2]; Rate 125 g/ha, Postemergence): 6 | Plant response rating, Giant foxtail ([2]; Rate 125 g/ha, Preemergence): 9 | Plant response rating, Giant foxtail ([2]; Rate 250 g/ha, Postemergence): 9 | Plant response rating, Giant foxtail ([2]; Rate 250 g/ha, Preemergence): 10 | Plant response rating, Giant foxtail ([2]; Rate 500 g/ha, Postemergence): 9 | Plant response rating, Giant foxtail ([2]; Rate 500 g/ha, Preemergence): 10 | Plant response rating, Sugarbeets [3, 11]: 9 | Sugarbeets plant response rating ([3]; Rate 62 g/ha, Postemergence): 9 | Sugarbeets plant response rating ([3]; Rate 125 g/ha, Postemergence): 9 | Plant response rating, Sugarbeets ([3]; Rate 125 g/ha, Preemergence): 10 | Plant response rating, Sugarbeets ([3]; Rate 250 g/ha, Postemergence): 9 | Plant response rating, Sugarbeets ([3]; Rate 250 g/ha, Preemergence): 10 | Plant response rating, Sugarbeets ([3]; Rate 500 g/ha, Postemergence): 9 | Plant response rating, Sugarbeets ([3]; Rate 500 g/ha, Preemergence): 10 | Plant response rating, Bedstraw [4, 11]: 7 | Bedstraw plant response rating ([4]; Rate 62 g/ha, Postemergence): 9 | Bedstraw plant response rating ([4]; Rate 125 g/ha, Postemergence): 9 | Plant response rating, Bedstraw ([4]; Rate 125 g/ha, Preemergence): 9 | Plant response rating, Bedstraw ([4]; Rate 250 g/ha, Postemergence): 10 | Plant response rating, Bedstraw ([4]; Rate 250 g/ha, Preemergence): 9 | Plant response rating, Bedstraw ([4]; Rate 500 g/ha, Postemergence): 10 | Plant response rating, Bedstraw ([4]; Rate 500 g/ha, Preemergence): 10 | Plant response rating, Velvetleaf [5, 11]: 8 | Velvetleaf plant response rating ([5]; Rate 62 g/ha, Postemergence): 8 | Velvetleaf plant response rating ([5]; Rate 125 g/ha, Postemergence): 8 | Plant response rating, Velvetleaf ([5]; Rate 125 g/ha, Preemergence): 9 | Plant response rating, Velvetleaf ([5]; Rate 250 g/ha, Postemergence): 8 | Plant response rating, Velvetleaf ([5]; Rate 250 g/ha, Preemergence): 10 | Plant response rating, Velvetleaf ([5]; Rate 500 g/ha, Postemergence): 8 | Plant response rating, Velvetleaf ([5]; Rate 500 g/ha, Preemergence): 10 | Nutsedge plant response rating ([6]; Rate 62 g/ha, Postemergence): 0 | Nutsedge plant response rating ([6]; Rate 125 g/ha, Postemergence): 2 | Plant response rating, Nutsedge ([6]; Rate 250 g/ha, Postemergence): 4 | Plant response rating, Nutsedge ([6]; Rate 500 g/ha, Preemergence): 0 | Plant response rating, Redroot pigweed [7, 11]: 9 | Redroot pigweed plant response rating ([7]; Rate 62 g/ha, Postemergence): 9 | Redroot pigweed plant response rating ([7]; Rate 125 g/ha, Postemergence): 10 | Plant response rating, Redroot pigweed ([7]; Rate 125 g/ha, Preemergence): 10 | Plant response rating, Redroot pigweed ([7]; Rate 250 g/ha, Postemergence): 10 | Plant response rating, Redroot pigweed ([7]; Rate 250 g/ha, Preemergence): 10 | Plant response rating, Redroot pigweed ([7]; Rate 500 g/ha, Postemergence): 10 | Plant response rating, Redroot pigweed ([7]; Rate 500 g/ha, Preemergence): 10 | Plant response rating, Wheat [8, 11]: 3 | Wheat plant response rating ([8]; Rate 62 g/ha, Postemergence): 3 | Wheat plant response rating ([8]; Rate 125 g/ha, Postemergence): 4 | Plant response rating, Wheat ([8]; Rate 125 g/ha, Preemergence): 3 | Plant response rating, Wheat ([8]; Rate 250 g/ha, Postemergence): 5 | Plant response rating, Wheat ([8]; Rate 250 g/ha, Preemergence): 3 | Plant response rating, Wheat ([8]; Rate 500 g/ha, Postemergence): 6 | Plant response rating, Wheat ([8]; Rate 500 g/ha, Preemergence): 4 | Plant response rating, Wild oats (wild oat (Avena fatua); [11]): 3 | Wild oats plant response rating (wild oat (Avena fatua); Rate 62 g/ha, Postemergence): 5 | Wild oats plant response rating (wild oat (Avena fatua); Rate 125 g/ha, Postemergence): 7 | Plant response rating, Wild oats (wild oat (Avena fatua); Rate 125 g/ha, Preemergence): 5 | Plant response rating, Wild oats (wild oat (Avena fatua); Rate 250 g/ha, Postemergence): 8 | Plant response rating, Wild oats (wild oat (Avena fatua); Rate 250 g/ha, Preemergence): 6 | Plant response rating, Wild oats (wild oat (Avena fatua); Rate 500 g/ha, Postemergence): 8 | Plant response rating, Wild oats (wild oat (Avena fatua); Rate 500 g/ha, Preemergence): 9 | Cocklebur plant response rating ([9]; Rate 62 g/ha, Postemergence): 7 | Cocklebur plant response rating ([9]; Rate 125 g/ha, Postemergence): 7 | Plant response rating, Cocklebur ([9]; Rate 250 g/ha, Postemergence): 8 | Plant response rating, Cocklebur ([9]; Rate 250 g/ha, Preemergence): 2 | Plant response rating, Cocklebur ([9]; Rate 500 g/ha, Postemergence): 9 | Plant response rating, Cocklebur ([9]; Rate 500 g/ha, Preemergence): 5 | Plant response rating, Soybean (soybean (Glycine max); [11]): 1 | Soybean plant response rating (soybean (Glycine max); Rate 62 g/ha, Postemergence): 7 | Soybean plant response rating (soybean (Glycine max); Rate 125 g/ha, Postemergence): 7 | Plant response rating, Soybean (soybean (Glycine max); Rate 125 g/ha, Preemergence): 2 | Plant response rating, Soybean (soybean (Glycine max); Rate 250 g/ha, Postemergence): 8 | Plant response rating, Soybean (soybean (Glycine max); Rate 250 g/ha, Preemergence): 3 | Plant response rating, Soybean (soybean (Glycine max); Rate 500 g/ha, Postemergence): 8 | Plant response rating, Soybean (soybean (Glycine max); Rate 500 g/ha, Preemergence): 8 | Plant response rating, Crabgrass [10, 11]: 6 | Crabgrass plant response rating ([10]; Rate 62 g/ha, Postemergence): 7 | Crabgrass plant response rating ([10]; Rate 125 g/ha, Postemergence): 9 | Plant response rating, Crabgrass ([10]; Rate 125 g/ha, Preemergence): 9 | Plant response rating, Crabgrass ([10]; Rate 250 g/ha, Postemergence): 10 | Plant response rating, Crabgrass ([10]; Rate 250 g/ha, Preemergence): 10 | Plant response rating, Crabgrass ([10]; Rate 500 g/ha, Postemergence): 10 | Plant response rating, Crabgrass ([10]; Rate 500 g/ha, Preemergence): 10
